Experimental data published in patent publication US4103028A, “Complement inhibitors” (American Cyanamid Company, priority 1977, dated 1978).
Counter-ions that a name gives are not always drawn.

How the values were obtained:
[1] = tested on: complement level in undiluted serum; test: Complement Level Reduction Test; parameters: species or system guinea pig; conditions: In vivo, dosed guinea pigs bled for serum; capillary tube method, compared to undosed control guinea pigs
Text: (§1) This test measures the ability of activated […] in the presence of C4 and appropriate dilutions of the test compound. An active inhibitor protects C2 from C1 and C4; (ii) Test, Code 035 (C3-C9 inhibitor) -- This test determines the ability of the late components of human complement (C3-C9) to lyse EAC 142 in the presence of appropriate dilutions of the test compound. An active inhibitor protects EAC 142 from lysis by human C3-C9; (iii) Test, Code 036 (C-Shunt inhibitor) -- In this test human erythrocytes rendered fragile are lysed in autologous serum via the shunt pathway activated by cobra venom factor in the presence of appropriate dilutions of the test compound. Inhibition of the shunt pathway results in failure of lysis; (iv) Forssman Vasculitis Test -- Here, the well known complement dependent lesion, Forssman vascultitis, is produced in guinea pigs by intradermal injection of rabbit anti-Forssman antiserum. The lesion is measured in terms of diameter, edema and hemorrhage and the extent to which a combined index of these is inhibited by prior intraperitoneal injection of the test compound at 200 mg/kg is then reported, unless otherwise stated; (v) Forssman Shock Test -- Lethal shock is produced in guinea pigs by an i.v. injection of anti-Forssman antiserum and the harmonic mean death time of treated guinea pigs is compared with that of simultaneous controls; (vi) Complement Level Reduction Test -- In this test, the above dosed quinea pigs, or others, are bled for serum and the complement level is determined in undiluted serum by the capillary tube method of U.S. Pat. No. 3,876,376 and compared to undosed control guinea pigs; and (vii) Cap 50 Test -- Here, appropriate amounts of the test compound are added to a pool of guinea pig serum in vitro, after which the undiluted serum capillary tube assay referred to above is run. The concentration of compound inhibiting 50% is reported.

[2] = biological target: T1, C1 (Homo sapiens, UniProt P09871); test: Test, Code 026 (C1 inhibitor), serial dilution assay; format: biochemical; conditions: In vitro; well number of a two-fold serial dilution assay, higher well number indicates higher activity; NEG = negative
T1 sequence (P09871 16-437 limits assumed): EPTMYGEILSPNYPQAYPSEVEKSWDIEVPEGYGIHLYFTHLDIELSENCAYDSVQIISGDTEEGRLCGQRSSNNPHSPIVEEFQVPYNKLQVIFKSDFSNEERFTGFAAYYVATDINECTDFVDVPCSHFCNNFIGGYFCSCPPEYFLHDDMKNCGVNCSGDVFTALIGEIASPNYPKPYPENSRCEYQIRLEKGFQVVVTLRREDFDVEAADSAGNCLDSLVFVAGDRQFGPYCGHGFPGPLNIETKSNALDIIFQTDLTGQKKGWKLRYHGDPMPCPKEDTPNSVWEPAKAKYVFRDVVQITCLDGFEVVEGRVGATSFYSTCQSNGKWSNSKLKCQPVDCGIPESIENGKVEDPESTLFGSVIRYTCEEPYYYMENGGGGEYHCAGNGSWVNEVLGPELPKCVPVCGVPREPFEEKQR
T1 sequence (P09871 438-688 limits assumed): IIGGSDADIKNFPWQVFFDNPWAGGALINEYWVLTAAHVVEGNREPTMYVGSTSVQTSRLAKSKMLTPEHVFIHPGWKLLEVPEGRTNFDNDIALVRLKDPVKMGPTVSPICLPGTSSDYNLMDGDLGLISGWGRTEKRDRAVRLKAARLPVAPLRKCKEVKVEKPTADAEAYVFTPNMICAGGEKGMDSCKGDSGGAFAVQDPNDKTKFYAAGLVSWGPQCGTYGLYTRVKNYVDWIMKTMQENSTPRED
Text: as §1

[3] = tested on: Forssman vasculitis in guinea pigs; test: Forssman Vasculitis Test; parameters: species or system guinea pig; conditions: In vivo, inhibition of combined index of lesion diameter, edema and hemorrhage, prior intraperitoneal injection at 200 mg/kg unless otherwise stated
Text: as §1

[4] = tested on: shunt pathway; test: Test, Code 036 (C-Shunt inhibitor), lysis of fragile human erythrocytes in autologous serum, cobra venom factor; format: biochemical; conditions: In vitro; well number of a two-fold serial dilution assay, higher well number indicates higher activity; NEG = negative
Text: as §1

[5] = tested on: late components of human complement (C3-C9); test: Test, Code 035 (C3-C9 inhibitor), lysis of EAC 142; format: biochemical; conditions: In vitro; well number of a two-fold serial dilution assay, higher well number indicates higher activity; NEG = negative
Text: as §1

## O=C(Nc1cccc(C(=O)Nc2cc3c(O)cc(S(=O)(=O)O)cc3cc2S(=O)(=O)O)c1)Nc1cccc(C(=O)Nc2cc3c(O)cc(S(=O)(=O)O)cc3cc2S(=O)(=O)O)c1 [3,3'-[Ureylenebis (m-phenylenecarbonylimino)]bis[5-hydroxy-2,7-naphthalenedisulfonic acid]tetrasodium salt]
[1]
  % Reduction Complement: -31%
[2]
  026 (activity in wells): 5
[3]
  Forssman: 35
[4]
  036 (activity in wells): 2
[5]
  035 (activity in wells): 2

## Cc1ccc(NC(=O)Nc2cccc(C(=O)Nc3cc(S(=O)(=O)O)cc4cc(S(=O)(=O)O)cc(O)c34)c2)cc1[N+](=O)[O-] [4-Hydroxy-5-m-[3-(3-nitro-p-tolyl)ureido]benzamido-2,7-naphthalenedisulfonic acid, disodium salt]
[1]
  % Reduction Complement: +46%
[2]
  026 (activity in wells): NEG
[3]
  Forssman: 15
[4]
  036 (activity in wells): NEG
[5]
  035 (activity in wells): NEG

## O=C(Nc1cccc(C(=O)Nc2cc(S(=O)(=O)O)cc3cc(S(=O)(=O)O)cc(O)c23)c1)Nc1cccc(C(F)(F)F)c1 [4-Hydroxy-5-m-[3-(α,α,α-trifluoro-m-tolyl)ureido]benzamido-2,7-naphthalenedisulfonic acid, disodium salt]
[1]
  % Reduction Complement: -6%
[2]
  026 (activity in wells): 1
[3]
  Forssman: 5
[4]
  036 (activity in wells): NEG
[5]
  035 (activity in wells): NEG

## Cc1ccc(N)cc1C(=O)Nc1cc(S(=O)(=O)O)cc2cc(S(=O)(=O)O)cc(O)c12 [4-(5-Amino-o-toluamido)-5-hydroxy-2,7-naphthalenedisulfonic acid, disodium salt]
[2]
  026 (activity in wells): 2
[4]
  036 (activity in wells): NEG
[5]
  035 (activity in wells): NEG

## Cc1cc(C(=O)Nc2cc(S(=O)(=O)O)cc3cc(S(=O)(=O)O)cc(O)c23)ccc1N [4-(4-Amino-m-toluamido)-5-hydroxy-2,7-naphthalenedisulfonic acid, disodium salt]
[1]
  % Reduction Complement: +12%
[2]
  026 (activity in wells): 5
[3]
  Forssman: 17
[4]
  036 (activity in wells): NEG
[5]
  035 (activity in wells): NEG

## Cc1ccc([N+](=O)[O-])cc1C(=O)Nc1cc(S(=O)(=O)O)cc2cc(S(=O)(=O)O)cc(O)c12 [4-Hydroxy-5-(5-nitro-o-toluamido)-2,7-naphthalenedisulfonic acid, disodium salt]
[1]
  % Reduction Complement: -17%
[2]
  026 (activity in wells): 2
[3]
  Forssman: 10
[4]
  036 (activity in wells): NEG
[5]
  035 (activity in wells): NEG

## Cc1cc(C(=O)Nc2cc(S(=O)(=O)O)cc3cc(S(=O)(=O)O)cc(O)c23)ccc1[N+](=O)[O-] [4-Hydroxy-5-(4-nitro-3-toluamido)-2,7-naphthalenedisulfonic acid, disodium salt]
[1]
  % Reduction Complement: -20%
[2]
  026 (activity in wells): 2
[3]
  Forssman: 48
[4]
  036 (activity in wells): NEG
[5]
  035 (activity in wells): NEG

## Cc1ccc(C(=O)Nc2cc(S(=O)(=O)O)cc3cc(S(=O)(=O)O)cc(O)c23)cc1N [4-(3-Amino-p-toluamido)-5-hydroxy-2,7-naphthalenedisulfonic acid, disodium salt]
[2]
  026 (activity in wells): 5
[4]
  036 (activity in wells): NEG
[5]
  035 (activity in wells): NEG

## Cc1ccc(C(=O)Nc2cc(S(=O)(=O)O)cc3cc(S(=O)(=O)O)cc(O)c23)cc1[N+](=O)[O-] [4-Hydroxy-5-(3-nitro-p-toluamido)-2,7-naphthalenedisulfonic acid, disodium salt]
[2]
  026 (activity in wells): 3
[4]
  036 (activity in wells): NEG
[5]
  035 (activity in wells): NEG

## O=C(Nc1ccc(S(=O)(=O)F)cc1)Nc1cccc(C(=O)Nc2cc(S(=O)(=O)[O-])cc3cc(S(=O)(=O)[O-])cc(O)c23)c1.[Na+].[Na+] [4-{m-{3-[p-(Fluorosulfonyl)phenyl]ureido}benzamido}-5-hydroxy-2,7-naphthalenedisulfonic acid, disodium salt]
[2]
  026 (activity in wells): 4
[4]
  036 (activity in wells): NEG
[5]
  035 (activity in wells): NEG

## O=C(Nc1cccc(C(=O)Nc2cc(S(=O)(=O)[O-])cc3cc(S(=O)(=O)[O-])cc(O)c23)c1)Nc1cccc(C(=O)Nc2cc(S(=O)(=O)[O-])cc3cc(S(=O)(=O)[O-])cc(O)c23)c1.[Na+].[Na+].[Na+].[Na+] [5,5'-[Ureylenebis(m-phenylenecarbonylimino)]bis[4-hydroxy-2,7-naphthalenedisulfonic acid] tetrasodium salt]
[2]
  026 (activity in wells): 6
[4]
  036 (activity in wells): 2
[5]
  035 (activity in wells): 1
